One test has as its target mGluR4 (UniProt Q14833). Briefly: mGluR4 potentiation assay (Ca2+ or thallium flux fluorescence, agonist EC20). Format: cell-based, human or rat. The protocol: The disclosed compounds and compositions can be evaluated for their ability to act as a potentiator of metabotropic glutamate receptor activity, in particular mGluR4 activity, by any suitable known methodology known in the art. For example, Chinese Hamster Ovary (CHO) cells transfected with human mGluR4 or HEK cells co-transfected with rat mGluR4 and the G-protein regulated Inwardly Rectifying Potassium channel (GIRK) were plated in clear bottom assay plates for assay in a Hamamatsu FDSS Fluorometric Plate Reader. The cells were loaded with either a Ca2+-sensitive fluorescent dye or the thallium responsive dye and the plates were washed and placed into a suitable kinetic plate reader. For human mGluR4 assays, a fluorescence baseline was established for 3-5 seconds, the disclosed compounds were then added to the cells, and the response in cells was measured. Approximately two and a half minutes later, a concentration of mGluR4 orthosteric agonist (e.g. glutamate or L-AP4) eliciting approximately 20% (EC20) of the maximal agonist response was added to the cells, and the response was measured. Two minutes later, a concentration of mGluR4 agonist (e.g. glutamate or L-AP4) eliciting 80% (EC80) of the maximal agonist response was added to the cells, and the response was measured. For rat mGluR4/GIRK experiments, a baseline was established for approximately five seconds, disclosed compounds were added, and either an EC20 or EC80 concentration of agonist was added approximately two and one half minutes later.
The above described assay operated in two modes. In the first mode, a range of concentrations of the disclosed compounds are added to cells, followed by a single fixed concentration of agonist. If the compound acts as a potentiator, an EC50 value for potentiation and a maximum extent of potentiation by the compound at this concentration of agonist is determined by non-linear curve fitting. If the compound acts as a noncompetitive antagonist, an IC50 value is determined by non-linear curve fitting. In the second mode, several fixed concentrations of the disclosed compounds are added to various wells on a plate, followed by a range in concentrations of agonist for each concentration of disclosed compound. The EC50 values for the agonist at each concentration of compound are determined by non-linear curve fitting. A decrease in the EC50 value of the agonist with increasing concentrations of the sample compound (a leftward shift of the agonist concentration-response curve) is an indication of the degree of mGluR4 potentiation at a given concentration of the sample compound. A decrease in the maximal response of the agonist with increasing concentrations of the sample compounds, with or without a rightward shift in agonist potency, is an indication of the degree of noncompetitive antagonism at mGluR4. The second mode also indicates whether the sample compounds also affect the maximum response to mGluR4 to agonists.

In another test the target is T1, mGluR5 (Rattus norvegicus, UniProt P31424).
T1 construct: expressed in transfected cells; host or cells: human embryonic kidney (HEK) cells
T1 sequence (P31424 21-1203): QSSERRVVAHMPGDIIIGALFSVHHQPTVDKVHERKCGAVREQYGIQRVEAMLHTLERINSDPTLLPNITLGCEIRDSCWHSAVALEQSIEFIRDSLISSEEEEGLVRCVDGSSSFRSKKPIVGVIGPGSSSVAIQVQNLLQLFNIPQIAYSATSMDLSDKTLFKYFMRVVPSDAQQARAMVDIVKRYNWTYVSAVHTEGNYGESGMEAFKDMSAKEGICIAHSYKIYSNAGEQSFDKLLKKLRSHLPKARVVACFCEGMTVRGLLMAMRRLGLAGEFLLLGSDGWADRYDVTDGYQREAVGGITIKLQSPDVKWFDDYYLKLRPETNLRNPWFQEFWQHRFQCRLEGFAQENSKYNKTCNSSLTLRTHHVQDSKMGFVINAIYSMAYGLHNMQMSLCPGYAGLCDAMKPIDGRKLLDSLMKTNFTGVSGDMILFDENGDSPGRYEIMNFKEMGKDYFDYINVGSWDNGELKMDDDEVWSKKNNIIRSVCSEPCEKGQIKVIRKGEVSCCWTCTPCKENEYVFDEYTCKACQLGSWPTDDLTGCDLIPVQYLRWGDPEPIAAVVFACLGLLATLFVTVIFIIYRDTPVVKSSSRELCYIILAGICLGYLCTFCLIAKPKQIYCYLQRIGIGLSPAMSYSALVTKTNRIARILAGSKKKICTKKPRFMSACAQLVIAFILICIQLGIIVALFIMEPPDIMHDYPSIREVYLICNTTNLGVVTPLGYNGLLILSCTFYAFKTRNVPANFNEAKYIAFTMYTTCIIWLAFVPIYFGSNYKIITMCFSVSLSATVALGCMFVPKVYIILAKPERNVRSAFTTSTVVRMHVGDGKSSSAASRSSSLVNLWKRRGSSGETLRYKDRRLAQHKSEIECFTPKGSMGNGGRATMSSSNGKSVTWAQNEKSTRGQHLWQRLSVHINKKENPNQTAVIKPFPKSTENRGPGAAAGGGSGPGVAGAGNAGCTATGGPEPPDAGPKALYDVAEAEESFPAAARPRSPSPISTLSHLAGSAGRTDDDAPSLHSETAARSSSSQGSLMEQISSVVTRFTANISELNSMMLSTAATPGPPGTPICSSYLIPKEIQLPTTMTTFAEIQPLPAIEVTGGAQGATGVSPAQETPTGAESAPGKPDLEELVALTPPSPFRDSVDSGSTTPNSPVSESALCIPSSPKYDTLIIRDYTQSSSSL
As to the kind of experiment: mGluR5 negative allosteric modulation, decrease in response to non-maximal glutamate in HEK cells. Format: cell-based. Particulars: Table 3; read-out: mGlu5 IC50. From the text: Embodiments of the present invention are also mGluR5 negative allosteric modulators. Accordingly, in one aspect, the invention relates to compounds that are also useful as negative allosteric modulators of the metabotropic glutamate receptor subtype 5 (mGluR5). Negative allosteric modulators are non-competitive antagonists and can include a range of maximal antagonist activity from partial antagonists to inverse agonists. In one aspect, the present invention relates to compounds that allosterically modulate mGluR5 receptor activity, affecting the sensitivity of mGluR5 receptors to agonists without acting as orthosteric agonists themselves. […] The compounds of the invention can be useful in the treatment neurological and psychiatric disorders associated with glutamate dysfunction and other diseases in which metabotropic glutamate receptors are involved, as further described herein. […] In further aspect, the human embryonic kidney cells are transfected with human mGluR5. In yet a further aspect, human embryonic kidney cells are transfected with mGluR5 of a mammal.
In further aspect, the human embryonic kidney cells are transfected with human mGluR5. In yet a further aspect, human embryonic kidney cells are transfected with mGluR5 of a mammal.

The mark [1] stands for this setting: Table 2, potentiation of mGluR4 agonist response, read-out: EC50.

Where two headings read alike, the source gives them in different places.

For orientation: EC50 means the concentration that produces a half-maximal response. Consider `FC(F)(F)c1ccnc(Oc2ccc(Nc3n[nH]c4cccnc34)cc2Cl)c1` [Example 97, N-(3-chloro-4-((4-(trifluoromethyl)pyridin-2-yl)oxy)phenyl)-1H-pyrazolo[4,3-b]pyridin-3-amine], for which the EC50 on mGluR4 (setting [1]) came to 497 nM.
Turning to `Fc1cccnc1Oc1ccc(Nc2n[nH]c3cccnc23)cc1Cl` [Example 98, N-(3-chloro-4-((3-fluoropyridin-2-yl)oxy)phenyl)-1H-pyrazolo[4,3-b]pyridin-3-amine], at mGluR4 (setting [1]), the EC50 was 635 nM.
For the compound `Fc1ccccc1COc1ccc(Nc2n[nH]c3cccnc23)cc1Cl` [Example 99], the EC50 on mGluR4 (setting [1]) amounted to 180 nM.
`CC(Oc1ccc(Nc2n[nH]c3cccnc23)cc1Cl)c1ccccc1` (stereo not shown) [Example 100, N-(3-chloro-4-(1-phenylethoxy)phenyl)-1H-pyrazolo[4,3-b]pyridin-3-amine]: the EC50 on mGluR4 (setting [1]) is 1600 nM.
Still for that read-out and setting: to `Clc1cc(Nc2n[nH]c3cccnc23)ccc1OCc1ccncc1` [Example 101, N-(3-chloro-4-(pyridin-4-ylmethoxy)phenyl)-1H-pyrazolo[4,3-b]pyridin-3-amine] belongs 270 nM; to `Clc1cc(Nc2n[nH]c3cccnc23)ccc1OCc1cccnc1` [Example 102, N-(3-chloro-4-(pyridin-3-ylmethoxy)phenyl)-1H-pyrazolo[4,3-b]pyridin-3-amine], 400 nM.
With `Clc1cc(Nc2n[nH]c3cccnc23)ccc1OCc1nccs1` [Example 103, N-(3-chloro-4-(thiazol-2-ylmethoxy)phenyl)-1H-pyrazolo[4,3-b]pyridin-3-amine], the EC50 on mGluR4 (setting [1]) turned out to be 360 nM.
Still for that read-out and setting: to `Clc1ccccc1COc1ccc(Nc2n[nH]c3cccnc23)cc1Cl` [Example 104] belongs 1500 nM; to `Clc1cc(Nc2n[nH]c3cccnc23)ccc1OCC1CCCC1` [Example 105, N-(3-chloro-4-(cyclopentylmethoxy)phenyl)-1H-pyrazolo[4,3-b]pyridin-3-amine], 400 nM.
Regarding `Clc1cc(Nc2n[nH]c3cccnc23)ccc1OC1CCCCC1` [Example 106, N-(3-chloro-4-(cyclohexyloxy)phenyl)-1H-pyrazolo[4,3-b]pyridin-3-amine], the EC50 at mGluR4 (setting [1]) stood at 470 nM.
Regarding `C[C@H](Oc1ccc(Nc2n[nH]c3cccnc23)cc1Cl)c1ccccn1` [Example 107, (S)-N-(3-chloro-4-(1-(pyridin-2-yl)ethoxy)phenyl)-1H-pyrazolo[4,3-b]pyridin-3-amine], the EC50 at mGluR4 (setting [1]) turned out to be 610 nM.
The same measure, in the same setting: next, `Clc1cc(Nc2n[nH]c3cccnc23)ccc1OCc1ncccn1` [Example 108, N-(3-chloro-4-(pyrimidin-2-ylmethoxy)phenyl)-1H-pyrazolo[4,3-b]pyridin-3-amine]: 1190 nM; `Clc1cc(Nc2n[nH]c3cccnc23)ccc1OC1CCCc2cccnc21` (stereo not shown) [Example 109, N-(3-chloro-4-((5,6,7,8-tetrahydroquinolin-8-yl)oxy)phenyl)-1H-pyrazolo[4,3-b]pyridin-3-amine]: 1000 nM.
The same measure, in the same setting: to `C[C@H](Oc1ccc(Nc2n[nH]c3cccnc23)cc1Cl)c1ccncc1` [Example 110, (S)-N-(3-chloro-4-(1-(pyridin-4-yl)ethoxy)phenyl)-1H-pyrazolo[4,3-b]pyridin-3-amine] belongs 1230 nM; to `N#Cc1cncc(Oc2ccc(Nc3n[nH]c4cccnc34)cc2Cl)c1` [Example 111, 5-(4-((1H-pyrazolo[4,3-b]pyridin-3-yl)amino)-2-chlorophenoxy)nicotinonitrile], 84.8 nM.
In the case of `Fc1cncc(Oc2ccc(Nc3n[nH]c4cccnc34)cc2Cl)c1` [Example 112, N-(3-chloro-4-((5-fluoropyridin-3-yl)oxy)phenyl)-1H-pyrazolo[4,3-b]pyridin-3-amine], the 50% effective concentration (EC50) at mGluR4 (setting [1]) came to 611 nM.
Same read-out and setting: next, `Cc1cc(Nc2n[nH]c3cccnc23)ccc1Oc1ncccn1` [Example 113, N-(3-methyl-4-(pyrimidin-2-yloxy)phenyl)-1H-pyrazolo[4,3-b]pyridin-3-amine]: 265 nM.
In general, IC50 refers to the concentration needed to halve the response being measured. Turning to `Clc1cc(Nc2n[nH]c3cccnc23)ccc1Nc1ccccn1` [Example 114, 2-chloro-N4-(1H-pyrazolo[4,3-b]pyridin-3-yl)-N1-(pyridin-2-yl)benzene-1,4-diamine], the IC50 at mGluR5 amounted to 582 nM. For the same compound, at mGluR4 (Table 3, read-out: mGlu4 EC50), the EC50 was determined as 33.5 nM.
Regarding `Clc1cc(Nc2n[nH]c3cccnc23)ccc1Nc1cc2ccccc2cn1` [Example 115, 2-chloro-N1-(isoquinolin-3-yl)-N4-(1H-pyrazolo[4,3-b]pyridin-3-yl)benzene-1,4-diamine], on mGluR4 (Table 3, read-out: mGlu4 EC50), the EC50 is 37.2 nM.
Turning to `Clc1cccc(Nc2ccc(Nc3n[nH]c4cccnc34)cc2Cl)n1` [Example 116, 2-chloro-N1-(6-chloropyridin-2-yl)-N4-(1H-pyrazolo[4,3-b]pyridin-3-yl)benzene-1,4-diamine], the IC50 at mGluR5 was 2430 nM. Besides, the concentration for a half-maximal effect (EC50) at mGluR4 (Table 3, read-out: mGlu4 EC50) is 82.5 nM.
For `Clc1cc(Nc2n[nH]c3cccnc23)ccc1Nc1cnccn1` [Example 117, 2-chloro-N1-(pyrazin-2-yl)-N4-(1H-pyrazolo[4,3-b]pyridin-3-yl)benzene-1,4-diamine], in that order: 100 nM and 30.6 nM.
For `Clc1cc(Nc2n[nH]c3cccnc23)ccc1Nc1ncccn1` [Example 118, 2-chloro-N4-(1H-pyrazolo[4,3-b]pyridin-3-yl)-N1-(pyrimidin-2-yl)benzene-1,4-diamine], on mGluR5, the IC50 was found to be 3600 nM. Also, at mGluR4 (Table 3, read-out: mGlu4 EC50), the half-maximal effective concentration (EC50) worked out at 43.9 nM.
For `Cc1ccc(Nc2ccc(Nc3n[nH]c4cccnc34)cc2Cl)nc1` [Example 119, 2-chloro-N1-(5-methylpyridin-2-yl)-N4-(1H-pyrazolo[4,3-b]pyridin-3-yl)benzene-1,4-diamine], in that order: 590 nM and 16.9 nM.
The like results for `Cc1cccc(Nc2ccc(Nc3n[nH]c4cccnc34)cc2Cl)n1` [Example 120, 2-chloro-N1-(6-methylpyridin-2-yl)-N4-(1H-pyrazolo[4,3-b]pyridin-3-yl)benzene-1,4-diamine] were, in that order, 550 nM and 31.5 nM.
As to `FC(F)(F)c1ccnc(Nc2ccc(Nc3n[nH]c4cccnc34)cc2Cl)c1` [Example 121, 2-chloro-N4-(1H-pyrazolo[4,3-b]pyridin-3-yl)-N1-(4-(trifluoromethyl)pyridin-2-yl)benzene-1,4-diamine], the EC50 on mGluR4 (Table 3, read-out: mGlu4 EC50) was found to be 56.9 nM.
The same measure, in the same setting: next, `Clc1cc(Nc2n[nH]c3cccnc23)ccc1Nc1cnc2ccccc2c1` [Example 122, 2-chloro-N4-(1H-pyrazolo[4,3-b]pyridin-3-yl)-N1-(quinolin-3-yl)benzene-1,4-diamine]: 162 nM.
Take `COc1ccnc(Nc2ccc(Nc3n[nH]c4cccnc34)cc2Cl)n1` [Example 123, 2-chloro-N1-(4-methoxypyrimidin-2-yl)-N4-(1H-pyrazolo[4,3-b]pyridin-3-yl)benzene-1,4-diamine]: the half-maximal inhibitory concentration (IC50) at mGluR5 was found to be 670 nM. Besides, the EC50 at mGluR4 (Table 3, read-out: mGlu4 EC50) turned out to be 25.5 nM.
As to `Clc1cc(Nc2n[nH]c3cccnc23)ccc1Nc1ncc2ccccc2n1` [Example 125, 2-chloro-N4-(1H-pyrazolo[4,3-b]pyridin-3-yl)-N1-(quinazolin-2-yl)benzene-1,4-diamine], the EC50 at mGluR4 (Table 3, read-out: mGlu4 EC50) was determined as 21.6 nM.
Consider `Clc1cc(Nc2n[nH]c3cccnc23)ccc1Nc1nccc2cccnc12` [Example 128, 2-chloro-N1-(1,7-naphthyridin-8-yl)-N4-(1H-pyrazolo[4,3-b]pyridin-3-yl)benzene-1,4-diamine], for which the EC50 at mGluR4 (Table 3, read-out: mGlu4 EC50) came out at 455 nM.
Take `Cc1cc(Nc2n[nH]c3cccnc23)ccc1Nc1ncccn1` [Example 130, 2-methyl-N4-(1H-pyrazolo[4,3-b]pyridin-3-yl)-N1-(pyrimidin-2-yl)benzene-1,4-diamine]: the EC50 on mGluR4 (Table 3, read-out: mGlu4 EC50) came to 235 nM.

The values above are taken from patent US9108963B2, “Pyrazolopyridine, pyrazolopyrazine, pyrazolopyrimidine, pyrazolothiophene and pyrazolothiazole compounds as MGLUR4 allosteric potentiators, compositions, and methods of treating neurological dysfunction” (Vanderbilt University, priority 2010, dated 2015).
